Experiments:
virus strain F (R13025) = assay: microbe, parasite or virus in culture; format: cell-based, HIV; details: for EC50: Human immunodeficiency virus 1, MT4, read-out: HIV-AVE-MT4-MTT-R13025-2-002 pEC50, virus strain F (R13025), MT4 cells, MTT (converted)
Method: (§1) HIV- or mock-infected MT4 cells were incubated for five days in the presence of various concentrations of the inhibitor. […] Cell viability is measured by measuring the concentration of MTT, a yellow, water soluble tetrazolium dye that is converted to a purple, water insoluble formazan in the mitochondria of living cells only. Upon solubilization of the resulting formazan crystals with isopropanol, the absorbance of the solution is monitored at 540 nm. The values correlate directly to the number of living cells remaining in the culture at the completion of the five day incubation. The inhibitory activity of the compound was monitored on the virus-infected cells and was expressed as EC50 and EC90. These values represent the amount of the compound required to protect 50% and 90%, respectively, of the cells from the cytopathogenic effect of the virus. The toxicity of the compound was measured on the mock-infected cells and was expressed as CC50, which represents the concentration of compound required to inhibit the growth of the cells by 50%. The selectivity index (SI) (ratio CC50/EC50) is an indication of the selectivity of the anti-HIV activity of the inhibitor.
(§2) Because of the increasing emergence of drug resistant HIV strains, the present compounds were tested for their potency against clinically isolated HIV strains harboring several mutations.
(§3) As a measure of the broad spectrum activity of the present compounds, the fold resistance (FR) defined as FR=EC50(mutant strain)/EC50(HIV-1 strain LAI).

virus strain S (R13080) = assay: microbe, parasite or virus in culture; format: cell-based, HIV; details: for EC50: Human immunodeficiency virus 1, MT4, read-out: HIV-AVE-MT4-MTT-R13080-2-002 pEC50, virus strain S (R13080), MT4 cells, MTT (converted)
Method: as §1, §2, §3

wild type virus (IIIB) = assay: HIV-AVE-MT4-MTT cellular assay, wild type virus (IIIB); format: cell-based; details: MT4 cells, MTT; for EC50: Human immunodeficiency virus 1, IIIB, MT4, wild type virus (IIIB), read-out: HIV-AVE-MT4-MTT-IIIB-2-002 pEC50 (converted)
Method: HIV- or mock-infected MT4 cells were incubated for five days in the presence of various concentrations of the inhibitor. At the end of the incubation period, all HIV-infected cells have been killed by the replicating virus in the control cultures in the absence of any inhibitor. Cell viability is measured by measuring the concentration of MTT, a yellow, water soluble tetrazolium dye that is converted to a purple, water insoluble formazan in the mitochondria of living cells only. Upon solubilization of the resulting formazan crystals with isopropanol, the absorbance of the solution is monitored at 540 nm. The values correlate directly to the number of living cells remaining in the culture at the completion of the five day incubation. The inhibitory activity of the compound was monitored on the virus-infected cells and was expressed as EC50 and EC90. These values represent the amount of the compound required to protect 50% and 90%, respectively, of the cells from the cytopathogenic effect of the virus. The toxicity of the compound was measured on the mock-infected cells and was expressed as CC50, which represents the concentration of compound required to inhibit the growth of the cells by 50%. The selectivity index (SI) (ratio CC50/EC50) is an indication of the selectivity of the anti-HIV activity of the inhibitor.

Structure (SMILES) | EC50 (virus strain F (R13025)) | EC50 (virus strain S (R13080)) | EC50 (wild type virus (IIIB)) | HIV-AVE-MT4-MTT-R13025-2-002 pEC50 (virus strain F (R13025); virus strain F (R13025), MT4 cells, MTT) | HIV-AVE-MT4-MTT-R13080-2-002 pEC50 (virus strain S (R13080); virus strain S (R13080), MT4 cells, MTT) | HIV-AVE-MT4-MTT-IIIB-2-002 pEC50 (wild type virus (IIIB); wild type virus (IIIB))
CC(C)CN(C[C@@H](O)[C@H](Cc1ccccc1)NC(=O)O[C@H]1CO[C@H]2OCC[C@H]21)S(=O)(=O)c1ccc2nc(N(C)CCCN3CCCC3)sc2c1 [Compound 108] | 288 nM | 813 nM | 24.5 nM |  |  | 
Cc1cccc(C)c1OCC(=O)N[C@@H](Cc1ccccc1)[C@H](O)CN(CC(C)C)S(=O)(=O)c1ccc2nc(NC(=O)c3cc(O)cc(O)c3)sc2c1 [Compound 113] | 24.5 nM | 43.7 nM | 5.13 nM |  |  | 
CC(=O)Nc1nc2ccc(S(=O)(=O)N(CC(C)C)C[C@@H](O)[C@H](Cc3ccccc3)NC(=O)COc3c(C)cc(C)cc3C)cc2s1 [Compound 105] | 56.2 nM | 479 nM | 46.8 nM |  |  | 
CC(C)CN(C[C@@H](O)[C@H](Cc1ccccc1)NC(=O)OCc1cncs1)S(=O)(=O)c1ccc2nc(N(C)C(=O)CN(C)C)sc2c1 [Compound 176] |  |  |  | 7.2 | 6.65 | 8.39
Cc1cccc(C)c1OCC(=O)N[C@@H](Cc1ccccc1)[C@H](O)CN(CC(C)C)S(=O)(=O)c1ccc2nc(NC(=O)C3CCCN(C)C3)sc2c1 (stereo partly drawn) [Compound 128] | 19.1 nM | 56.2 nM | 5.89 nM |  |  | 
CC(C)CN(C[C@@H](O)[C@H](Cc1ccccc1)NC(=O)OCc1cncs1)S(=O)(=O)c1ccc2nc(NC(=O)c3ccoc3)sc2c1 [Compound 164] | 33.9 nM | 158 nM | 7.08 nM |  |  | 
CC(C)CN(C[C@@H](O)[C@H](Cc1ccccc1)NC(=O)OCc1cncs1)S(=O)(=O)c1ccc2nc(NC(=O)c3cc(ON)cc(ON)c3)sc2c1 [Compound 162] | 46.8 nM | 158 nM | 20.4 nM |  |  | 
Cc1cccc(C)c1OCC(=O)N[C@@H](Cc1ccccc1)[C@H](O)CN(CC(C)C)S(=O)(=O)c1ccc2nc(NC(=O)C3CC(=O)N(Cc4ccco4)C3)sc2c1 (stereo partly drawn) [Compound 114] | 33.9 nM | 141 nM | 20.4 nM |  |  | 
CC(C)CN(C[C@@H](O)[C@H](Cc1ccccc1)NC(=O)OCc1cncs1)S(=O)(=O)c1ccc2nc(N(C)C(=O)c3cc[nH]c3)sc2c1 [Compound 181] | 525 nM | 1820 nM | 33.1 nM |  |  | 
CC(C)CN(C[C@@H](O)[C@H](Cc1ccccc1)NC(=O)OCc1cncs1)S(=O)(=O)c1ccc2nc(N(C)C(=O)c3ccccn3)sc2c1 [Compound 154] | 38 nM | 372 nM | 5.5 nM |  |  | 
CC(C)CN(C[C@@H](O)[C@H](Cc1ccccc1)NC(=O)OCc1cncs1)S(=O)(=O)c1ccc2nc(NC(=O)c3cccnc3)sc2c1 [Compound 163] | 49 nM | 214 nM | 11.5 nM |  |  | 
CC(C)CN(C[C@@H](C)[C@H](Cc1ccccc1)NC(=O)OCc1cncs1)S(=O)(=O)c1ccc2nc(N(C)C(=O)c3ccncc3)sc2c1 [Compound 182] | 36.3 nM | 170 nM | 4.79 nM |  |  | 
CC(C)CN(C[C@@H](O)[C@H](Cc1ccccc1)NC(=O)O[C@H]1CO[C@H]2OCC[C@H]21)S(=O)(=O)c1ccc2nc(N3CCN(C)CC3)sc2c1 [Compound 107] | 158 nM | 661 nM | 2 nM |  |  | 
CC(C)CN(C[C@@H](O)[C@H](Cc1ccccc1)NC(=O)O[C@H]1CO[C@H]2OCC[C@H]21)S(=O)(=O)c1ccc2nc(N(C)CCCN(C)C)sc2c1 [Compound 103] | 174 nM | 525 nM | 20 nM |  |  | 

From patent publication US7659404B2, “Broad spectrum 2-(substituted-amino)-benzothiazole sulfonamide HIV protease inhibitors” (Tibotec Pharmaceuticals Ltd., priority 2001, dated 2010)
